Assay results as given in US10774084B2, “Adenine derivatives and their use as UV-photoprotective agents” (UNIVERZITA PALACKEHO V OLOMOUCI, priority 2015, dated 2020).

What was measured:
[1] = tested on: Triticum aestivum cv. Hereward leaf segments; test: Senescence bioassay on detached wheat leaf segments (chlorophyll retention); details: for maximum effective concentration: 96 h in the dark; for activity (%) [10^−4 mol · l^−1 BAP = 100%]: at maximum effective concentration
Method: Seeds of winter wheat, Triticum aestivum cv. Hereward, were washed under running water for 24 hours and then sown on vermiculite soaked with Knop's solution. They were placed in the growth chamber at 25° C. with a 16/8 h light period at […]. After 7 days, the first leaf was fully developed and the second leaf had started to grow. A tip section of the first leaf, approximately 35 mm long, was removed from 5 seedlings and trimmed slightly to a combined weight of 100 mg. The basal ends of the five leaf tips were placed in the wells of a microtiter polystyrene plate containing 150 μL of the tested derivative solution each. The entire plate was inserted into a plastic box lined with paper tissues soaked in distilled water to prevent leaf sections from drying out. After 96 h incubation in the dark at 25° C., the leaves were removed and chlorophyll extracted by heating at 80° C. for 10 min in 5 mL of 80% ethanol (v/v). The sample volume was then restored to 5 mL by the addition of 80% ethanol (v/v). The absorbance of the extract was recorded at 665 nm. In addition, chlorophyll extracts from fresh leaves and leaf tips incubated in deionised water were measured. The results are means of five replicates and the entire test was repeated twice. […] The compounds to be tested were dissolved in dimethylsulfoxide (DMSO) and the solution brought up to 10^−3 M with distilled water. […] The activity obtained for 10^−4 M of BAP was postulated as 100%. Kinetin was used as the second standard. Newly prepared compounds generally exceeded the efficiency of standard (BAP) by 10% of its activity (Tab. 5).

[2] = tested on: Normal human dermal fibroblasts (NHDF); test: In vitro phototoxicity test (neutral red) on NHDF; type: cell-based
Method: Phototoxic potential of test compound was determined by modified in vitro test validated phototoxicity evaluation (Spielmann H, Balls M, Dupuis J, Pape W J, Pechovitch G, de Silva O, Holzhiitter H G, Clothier R, Desolle P, Gerberick F, Liebsch M, Lovell W W, Maurer T, Pfannenbecker U, Potthast J M, Csato M, Sladowski D, Steiling W, Brantom P. The International EU/COLIPA In Vitro Phototoxicity Validation Study: Results of Phase II (Blind Trial). Part 1: The 3T3 NRU Phototoxicity Test. Toxicol In Vitro. 1998; 12:305-27). Normal human dermal fibroblasts (NHDF) were used as an in vitro model. Cells were isolated from tissue specimens obtained from healthy patients undergoing plastic surgery at the Department of Plastic and Aesthetic Surgery (University Hospital Olomouc). The use of skin tissue was in accordance with the Ethics Committee of the University Hospital and Faculty of Medicine and Dentistry, Palacky University, Olomouc and all patients signed written informed consent. Fibroblasts were used between the 2nd and 4th passage. For all experiments the fibroblasts were seeded onto 96-well plates at a density of 0.8×10^5 cells/ml (0.2 ml per well) of cultivation medium (DMEM supplemented with fetal calf serum (10%, v/v), penicillin ([…]) and streptomycin (100 U/ml)). Test substances included compounds number 1, 3, 9, 15 and 20. Compounds were dissolved in DMSO and then diluted in serum free medium (DMEM supplemented with penicillin ([…]) and streptomycin (100 U/ml)). After 24 h incubation was cultivation medium changed to serum free medium containing test compound or DMSO (negative control). The final applied concentrations range 3.9-125 μmol/l. As a control, serum free medium supplemented with appropriate concentration of DMSO (0.5%, v/v) was used. In parallel with test compound, chlorpromazine (CPZ; 0.8-50 μmol/l) was used as a known phototoxic compound. The test compound was in parallel applied on two 96-well plates with NHDF. After 60 minutes incubation with test compound medium was discarded, cells were washed two-times with PBS and PBS supplemented with glucose (1 mg/ml) was applied. A plate was then exposed to a non-cytotoxic dose of UVA radiation (5.0 J/cm^2) using a solar simulator SOL 500 (Dr. Hoenle Technology, Germany) equipped with a H1 filter transmitting wavelengths of 320-400 nm. Intensity of UVA radiation was evaluated before each irradiation by UVA-meter. A control (non-irradiated) plate was for the period of irradiation incubated in dark. After UVA exposure PBS with glucose was discarded and serum free medium was applied. After 24 hours (37° C., 5% CO2) cell damage was evaluated by neutral red (NR) incorporation into viable cells. Medium was discarded and NR solution (0.03% w/v, PBS) was applied. After 60 minutes NR solution was discarded, cells were fixed with a mixture of formaldehyde (0.5%, v/v) and CaCl2 (1%, m/v) in ratio 1:1 and then NR was dissolved in methanol (50%, v/v) with acetic acid (1%, v/v). After 5 minutes of intensive shaking absorbance was measured at 540 nm. Experiments were performed in four independent repetitions with use of cells from four donors to minimize individual sensitivity of donor cells. Phototoxic effect was evaluated as % of viability of control cells that was calculated from experimental data (absorbance) according to the following equation:
[formula] • AS . . . absorbance of sample (cells pre-incubated with test compound in serum free medium and irradiated) • AC . . . absorbance of control (cells pre-incubated with DMSO in serum free medium and irradiated) • AB . . . absorbance of background (extraction solution)

Structure (SMILES): c1nc(NCC2CCCO2)c2ncn(C3CCCO3)c2n1 (centres unmarked) [Compound 1, 6-(tetrahydrofuran-2-ylmethylamino)-9-(tetrahydrofuran-2-yl)purine]
- maximum effective concentration [1]: 10^−4 mol · l^−1
- activity (%) [10^−4 mol · l^−1 BAP = 100%] [1]: 125 ± 9%
- NHDF viability ([2]; +UVA 5.0 J/cm^2, 3.9 μmol/l): 105.1 % control
- NHDF viability ([2]; +UVA 5.0 J/cm^2, 7.8 μmol/l): 110.6 % control
- NHDF viability ([2]; +UVA 5.0 J/cm^2, 15.6 μmol/l): 106.8 % control
- NHDF viability ([2]; +UVA 5.0 J/cm^2, 31.3 μmol/l): 109.5 % control
- NHDF viability ([2]; +UVA 5.0 J/cm^2, 62.5 μmol/l): 103.3 % control
- NHDF viability ([2]; +UVA 5.0 J/cm^2, 125 μmol/l): 107.5 % control
- NHDF viability ([2]; −UVA, 3.9 μmol/l): 96.6 % control
- NHDF viability ([2]; −UVA, 7.8 μmol/l): 106.5 % control
- NHDF viability ([2]; −UVA, 15.6 μmol/l): 99.6 % control
- NHDF viability ([2]; −UVA, 31.3 μmol/l): 102.4 % control
- NHDF viability ([2]; −UVA, 62.5 μmol/l): 102.3 % control
- NHDF viability ([2]; −UVA, 125 μmol/l): 109.7 % control

Structure (SMILES): Clc1nc(NCc2ccco2)c2ncn(C3CCCO3)c2n1 (centres unmarked) [Compound 15, 2-chloro-6-furfurylamino-9-(tetrahydrofuran-2-yl)purine]
- NHDF viability ([2]; +UVA 5.0 J/cm^2, 3.9 μmol/l): 100.1 % control
- NHDF viability ([2]; +UVA 5.0 J/cm^2, 7.8 μmol/l): 101.5 % control
- NHDF viability ([2]; +UVA 5.0 J/cm^2, 15.6 μmol/l): 102.6 % control
- NHDF viability ([2]; +UVA 5.0 J/cm^2, 31.3 μmol/l): 102.9 % control
- NHDF viability ([2]; +UVA 5.0 J/cm^2, 62.5 μmol/l): 103.3 % control
- NHDF viability ([2]; +UVA 5.0 J/cm^2, 125 μmol/l): 97.3 % control
- NHDF viability ([2]; −UVA, 3.9 μmol/l): 100.3 % control
- NHDF viability ([2]; −UVA, 7.8 μmol/l): 103.5 % control
- NHDF viability ([2]; −UVA, 15.6 μmol/l): 104.3 % control
- NHDF viability ([2]; −UVA, 31.3 μmol/l): 105.4 % control
- NHDF viability ([2]; −UVA, 62.5 μmol/l): 106.3 % control
- NHDF viability ([2]; −UVA, 125 μmol/l): 101.2 % control

Structure (SMILES): Clc1nc(NCC2CCCO2)c2ncn(C3CCCO3)c2n1 (centres unmarked) [Compound 20, 2-chloro-6-(tetrahydrofuran-2-ylmethylamino)-9-(tetrahydrofuran-2-yl)purine]
- maximum effective concentration [1]: 10^−4 mol · l^−1
- activity (%) [10^−4 mol · l^−1 BAP = 100%] [1]: 127 ± 5%
- NHDF viability ([2]; +UVA 5.0 J/cm^2, 3.9 μmol/l): 100.1 % control
- NHDF viability ([2]; +UVA 5.0 J/cm^2, 7.8 μmol/l): 102.9 % control
- NHDF viability ([2]; +UVA 5.0 J/cm^2, 15.6 μmol/l): 100.4 % control
- NHDF viability ([2]; +UVA 5.0 J/cm^2, 31.3 μmol/l): 102.7 % control
- NHDF viability ([2]; +UVA 5.0 J/cm^2, 62.5 μmol/l): 105.1 % control
- NHDF viability ([2]; +UVA 5.0 J/cm^2, 125 μmol/l): 104.8 % control
- NHDF viability ([2]; −UVA, 3.9 μmol/l): 103.1 % control
- NHDF viability ([2]; −UVA, 7.8 μmol/l): 102.9 % control
- NHDF viability ([2]; −UVA, 15.6 μmol/l): 100.6 % control
- NHDF viability ([2]; −UVA, 31.3 μmol/l): 105.6 % control
- NHDF viability ([2]; −UVA, 62.5 μmol/l): 102 % control
- NHDF viability ([2]; −UVA, 125 μmol/l): 104 % control

Structure (SMILES): CN(C)CCCN1c2ccccc2Sc2ccc(Cl)cc21 [chlorpromazine, reference compound]
- viability of NHDF cells ([2]; UVA+, 6.3 μmol/l): below 80 % of control
- viability of NHDF cells ([2]; UVA−, 25 μmol/l): below 80%

Structure (SMILES): c1csc(CNc2ncnc3c2ncn3C2CCCO2)c1 (centres unmarked) [Compound 9, 6-(thiophen-2-ylmethylamino)-9-(tetrahydrofuran-2-yl)purine]
- maximum effective concentration [1]: 10^−4 mol · l^−1
- activity (%) [10^−4 mol · l^−1 BAP = 100%] [1]: 112 ± 5%
- NHDF viability ([2]; +UVA 5.0 J/cm^2, 3.9 μmol/l): 97.8 % control
- NHDF viability ([2]; +UVA 5.0 J/cm^2, 7.8 μmol/l): 102.3 % control
- NHDF viability ([2]; +UVA 5.0 J/cm^2, 15.6 μmol/l): 100.8 % control
- NHDF viability ([2]; +UVA 5.0 J/cm^2, 31.3 μmol/l): 105.9 % control
- NHDF viability ([2]; +UVA 5.0 J/cm^2, 62.5 μmol/l): 102.8 % control
- NHDF viability ([2]; +UVA 5.0 J/cm^2, 125 μmol/l): 106.3 % control
- NHDF viability ([2]; −UVA, 3.9 μmol/l): 100 % control
- NHDF viability ([2]; −UVA, 7.8 μmol/l): 103 % control
- NHDF viability ([2]; −UVA, 15.6 μmol/l): 100.5 % control
- NHDF viability ([2]; −UVA, 31.3 μmol/l): 106.7 % control
- NHDF viability ([2]; −UVA, 62.5 μmol/l): 107.9 % control
- NHDF viability ([2]; −UVA, 125 μmol/l): 108.4 % control

Structure (SMILES): OCc1ccc(CNc2ncnc3c2ncn3C2CCCO2)o1 (centres unmarked) [Compound 3, 6-(5-hydroxymethylfuran-2-ylmethylamino)-9-(tetrahydrofuran-2-yl)purine]
- NHDF viability ([2]; +UVA 5.0 J/cm^2, 3.9 μmol/l): 101.04 % control
- NHDF viability ([2]; +UVA 5.0 J/cm^2, 7.8 μmol/l): 106.46 % control
- NHDF viability ([2]; +UVA 5.0 J/cm^2, 15.6 μmol/l): 102.28 % control
- NHDF viability ([2]; +UVA 5.0 J/cm^2, 31.3 μmol/l): 107.4 % control
- NHDF viability ([2]; +UVA 5.0 J/cm^2, 62.5 μmol/l): 110.49 % control
- NHDF viability ([2]; +UVA 5.0 J/cm^2, 125 μmol/l): 111.8 % control
- NHDF viability ([2]; −UVA, 3.9 μmol/l): 103 % control
- NHDF viability ([2]; −UVA, 7.8 μmol/l): 104.9 % control
- NHDF viability ([2]; −UVA, 15.6 μmol/l): 104.2 % control
- NHDF viability ([2]; −UVA, 31.3 μmol/l): 107.7 % control
- NHDF viability ([2]; −UVA, 62.5 μmol/l): 106.6 % control
- NHDF viability ([2]; −UVA, 125 μmol/l): 110.4 % control
